Experimental data reported in paper PMC10824666 (Nature Cancer, 2023).
Read-outs that look alike come from different tables or passages of the source. Each block holds one compound with its values, some of them ahead of it.

Tests used:
Assay in all cases: biochemical
Set-up in all cases: Eurofins DiscoverX kinase panel, competitive binding assay at 1 uM, percent of DMSO control
Details in all cases: competitive binding, percent of DMSO control
PKD2 = molecular target: T1, PKD2 (Homo sapiens, UniProt Q9BZL6)
T1 construct: gene PRKD2
T1 sequence (Q9BZL6 1-878): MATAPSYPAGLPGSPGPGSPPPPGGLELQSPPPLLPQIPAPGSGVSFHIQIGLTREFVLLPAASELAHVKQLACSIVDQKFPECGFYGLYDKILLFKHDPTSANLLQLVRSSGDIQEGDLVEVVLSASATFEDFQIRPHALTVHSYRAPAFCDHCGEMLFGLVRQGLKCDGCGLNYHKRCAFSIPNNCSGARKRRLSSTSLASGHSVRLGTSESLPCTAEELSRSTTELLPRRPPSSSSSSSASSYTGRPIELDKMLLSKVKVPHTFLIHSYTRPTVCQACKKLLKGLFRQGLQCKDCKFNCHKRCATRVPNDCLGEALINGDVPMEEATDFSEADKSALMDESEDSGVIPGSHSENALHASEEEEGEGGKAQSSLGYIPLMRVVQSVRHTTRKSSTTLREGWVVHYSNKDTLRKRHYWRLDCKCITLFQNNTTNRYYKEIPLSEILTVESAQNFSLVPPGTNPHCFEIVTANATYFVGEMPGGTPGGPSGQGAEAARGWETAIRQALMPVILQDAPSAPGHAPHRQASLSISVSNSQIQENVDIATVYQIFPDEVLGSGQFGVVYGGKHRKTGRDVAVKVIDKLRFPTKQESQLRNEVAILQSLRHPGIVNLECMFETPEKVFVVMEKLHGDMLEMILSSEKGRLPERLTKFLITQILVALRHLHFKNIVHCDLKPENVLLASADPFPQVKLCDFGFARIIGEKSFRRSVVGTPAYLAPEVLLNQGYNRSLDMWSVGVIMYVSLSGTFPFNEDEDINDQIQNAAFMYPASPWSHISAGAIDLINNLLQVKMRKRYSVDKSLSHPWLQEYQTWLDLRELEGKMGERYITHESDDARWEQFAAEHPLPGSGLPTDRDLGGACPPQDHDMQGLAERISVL
Summary of the method: (§1)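 Single-point profiling at 1 µM compound in a competition-binding format against 96 kinases, read out as POC relative to control; n = 1.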

KDR = KDR (Homo sapiens, UniProt P35968)
Sequence of KDR (P35968 whole entry): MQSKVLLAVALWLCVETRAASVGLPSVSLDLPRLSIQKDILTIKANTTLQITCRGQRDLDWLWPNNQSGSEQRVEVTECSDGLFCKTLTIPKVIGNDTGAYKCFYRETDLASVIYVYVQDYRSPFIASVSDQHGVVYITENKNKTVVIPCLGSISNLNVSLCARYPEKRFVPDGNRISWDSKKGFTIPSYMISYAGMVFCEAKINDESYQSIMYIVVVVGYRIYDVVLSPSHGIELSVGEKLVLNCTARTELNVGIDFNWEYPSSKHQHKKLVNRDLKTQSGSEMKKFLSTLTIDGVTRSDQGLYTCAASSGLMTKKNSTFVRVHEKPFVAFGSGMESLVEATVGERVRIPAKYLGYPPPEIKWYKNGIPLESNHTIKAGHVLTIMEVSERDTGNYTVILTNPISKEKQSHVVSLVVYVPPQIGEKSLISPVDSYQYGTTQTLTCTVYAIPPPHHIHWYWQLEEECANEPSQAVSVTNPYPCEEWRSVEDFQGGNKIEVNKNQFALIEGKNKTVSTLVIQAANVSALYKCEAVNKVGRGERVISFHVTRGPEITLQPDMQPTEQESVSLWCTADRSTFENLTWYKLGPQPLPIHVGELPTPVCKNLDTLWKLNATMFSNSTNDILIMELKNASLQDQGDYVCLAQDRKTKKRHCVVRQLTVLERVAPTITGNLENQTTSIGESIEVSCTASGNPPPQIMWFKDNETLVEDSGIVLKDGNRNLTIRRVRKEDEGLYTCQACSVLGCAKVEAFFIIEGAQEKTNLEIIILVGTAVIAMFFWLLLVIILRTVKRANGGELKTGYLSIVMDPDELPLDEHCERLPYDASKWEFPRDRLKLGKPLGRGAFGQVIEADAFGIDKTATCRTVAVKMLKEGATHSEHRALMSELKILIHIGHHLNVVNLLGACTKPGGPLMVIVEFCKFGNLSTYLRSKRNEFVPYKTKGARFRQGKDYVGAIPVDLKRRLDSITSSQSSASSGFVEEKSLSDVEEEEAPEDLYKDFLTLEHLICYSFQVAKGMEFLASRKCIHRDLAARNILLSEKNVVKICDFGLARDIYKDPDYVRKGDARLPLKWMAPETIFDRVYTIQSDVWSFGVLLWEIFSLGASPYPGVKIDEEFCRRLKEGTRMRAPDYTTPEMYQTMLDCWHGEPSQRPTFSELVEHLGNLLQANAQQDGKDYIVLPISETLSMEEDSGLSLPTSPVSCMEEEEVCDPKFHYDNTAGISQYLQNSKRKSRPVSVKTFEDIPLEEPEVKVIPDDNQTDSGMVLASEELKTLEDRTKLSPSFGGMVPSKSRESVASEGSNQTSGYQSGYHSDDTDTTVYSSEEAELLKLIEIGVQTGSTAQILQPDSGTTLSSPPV
Summary of the method: as §1

Abl_unphos = molecular target: T2, Abl_unphos (Homo sapiens, UniProt P00519)
T2 construct: gene ABL1; non-phosphorylated
T2 sequence (P00519 whole entry): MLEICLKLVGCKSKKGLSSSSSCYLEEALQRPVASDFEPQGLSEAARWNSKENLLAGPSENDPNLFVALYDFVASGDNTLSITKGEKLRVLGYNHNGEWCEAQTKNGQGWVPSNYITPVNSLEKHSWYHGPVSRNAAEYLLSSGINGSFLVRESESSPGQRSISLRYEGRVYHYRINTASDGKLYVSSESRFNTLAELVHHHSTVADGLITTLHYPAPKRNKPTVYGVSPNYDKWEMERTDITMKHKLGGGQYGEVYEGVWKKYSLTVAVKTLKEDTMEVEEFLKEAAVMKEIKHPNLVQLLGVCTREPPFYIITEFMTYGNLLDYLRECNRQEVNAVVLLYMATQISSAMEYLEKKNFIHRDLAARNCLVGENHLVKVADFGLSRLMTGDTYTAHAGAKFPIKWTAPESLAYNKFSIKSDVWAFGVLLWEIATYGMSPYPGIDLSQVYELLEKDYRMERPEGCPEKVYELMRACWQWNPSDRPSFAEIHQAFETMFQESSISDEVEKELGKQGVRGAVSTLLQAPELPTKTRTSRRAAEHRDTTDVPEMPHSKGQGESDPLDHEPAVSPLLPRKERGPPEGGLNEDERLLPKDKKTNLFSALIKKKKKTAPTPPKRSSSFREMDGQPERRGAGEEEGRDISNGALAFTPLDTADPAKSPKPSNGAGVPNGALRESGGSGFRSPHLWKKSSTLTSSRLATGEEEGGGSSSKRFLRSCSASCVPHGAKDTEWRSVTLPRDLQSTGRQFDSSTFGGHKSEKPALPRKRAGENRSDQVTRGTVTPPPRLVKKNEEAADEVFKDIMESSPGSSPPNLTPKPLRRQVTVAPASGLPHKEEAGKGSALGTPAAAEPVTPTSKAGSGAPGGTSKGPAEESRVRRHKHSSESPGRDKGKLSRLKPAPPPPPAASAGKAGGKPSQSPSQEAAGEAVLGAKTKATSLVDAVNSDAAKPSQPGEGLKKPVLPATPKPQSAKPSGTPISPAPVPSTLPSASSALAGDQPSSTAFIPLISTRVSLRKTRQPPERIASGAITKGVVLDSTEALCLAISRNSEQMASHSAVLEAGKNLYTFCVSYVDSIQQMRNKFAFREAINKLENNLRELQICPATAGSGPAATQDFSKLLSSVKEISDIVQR
Summary of the method: as §1

Stk33 = Stk33 (Homo sapiens, UniProt Q9BYT3)
Sequence of Stk33 (Q9BYT3 whole entry): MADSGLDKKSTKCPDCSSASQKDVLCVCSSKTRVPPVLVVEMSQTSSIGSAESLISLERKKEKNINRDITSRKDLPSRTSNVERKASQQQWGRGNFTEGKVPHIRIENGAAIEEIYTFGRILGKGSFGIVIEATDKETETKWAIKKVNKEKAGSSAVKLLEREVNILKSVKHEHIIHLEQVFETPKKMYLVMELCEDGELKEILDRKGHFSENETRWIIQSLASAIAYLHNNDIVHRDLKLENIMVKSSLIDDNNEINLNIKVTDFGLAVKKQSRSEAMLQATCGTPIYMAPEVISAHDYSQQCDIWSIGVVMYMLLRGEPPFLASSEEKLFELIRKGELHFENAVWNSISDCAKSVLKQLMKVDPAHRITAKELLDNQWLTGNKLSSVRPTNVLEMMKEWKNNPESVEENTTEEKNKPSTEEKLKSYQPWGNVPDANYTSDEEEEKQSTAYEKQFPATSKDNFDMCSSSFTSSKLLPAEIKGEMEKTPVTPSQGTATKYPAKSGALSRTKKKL
Summary of the method: as §1

[1] = read-out: Kinome Profiling performed by Eurofins DiscoverX / AM-1882, 1.0 µM / POC
[2] = read-out: Kinome Profiling performed by Eurofins DiscoverX / AM-5308, 1.0 µM / POC
[3] = read-out: Kinome Profiling performed by Eurofins DiscoverX / AM-0277, 1.0 µM / POC

remaining activity at 1 µM (PKD2; [1]): 64.5%
remaining activity at 1 µM (KDR; [1]): 80.5%
remaining activity at 1 µM (Abl_unphos; [1]): 58%
remaining activity at 1 µM (Stk33; [1]): 98%
SMILES: CC(C)(C)NS(=O)(=O)c1cccc(NC(=O)c2ccc(S(=O)(=O)NC(C)(C)C)cc2N2CCC3(CC2)CC3)c1 [AM-1882]

remaining activity at 1 µM (PKD2; [2]): 100%
remaining activity at 1 µM (KDR; [2]): 53%
remaining activity at 1 µM (Abl_unphos; [2]): 93%
remaining activity at 1 µM (Stk33; [2]): 89%
SMILES: C[C@@H]1CN(c2cccc(NC(=O)c3ccc(NS(=O)(=O)CCO)cc3N3CCC4(CC3)CC4)n2)CCO1 [AM-5308]

remaining activity at 1 µM (PKD2; [3]): 100%
remaining activity at 1 µM (KDR; [3]): 90%
remaining activity at 1 µM (Abl_unphos; [3]): 100%
remaining activity at 1 µM (Stk33; [3]): 86%
SMILES: CC(C)(CO)Nc1ccc(C(=O)Nc2cccc(S(=O)(=O)C3CCCC3)c2)c(N2CCC3(CC2)CC3)n1 [AM-0277]
